The record followed here is ChEMBL document CHEMBL5724564, “Patient-derived NASH model to assess the effects of chemical probes on hepatocyte regenerations” (2024).

The subject of the test is Hepatocyte spheroids. The test can be described thus: Cell viability is assessed by cellular ATP assay using CellTiter-Glo Luminescent kit. Viability is expressed as average RLU from biological replicates and normalized to negative control.Toxicity is defined as those with normalized ATP significantly less than 80 percent of the negative control. The class given is functional, Homo sapiens. On the set-up: unit not given here. Background: In ATP-based viability assays light output follows the ATP content of the culture.

As to `COc1cc2c(NC3CCN(C(C)C)CC3)nc(C3CCCCC3)nc2cc1OCCCN1CCCC1`, the Proliferation (Concentration range 5nM-5uM) is listed as 0.05128.

As for `CSc1ccc(-c2cc3ncnc(SCC(=O)O)c3s2)cc1`, the Proliferation amounted to 0.882.

In turn, `Cc1sc2c(c1C)C(c1ccc(Cl)cc1)=NC(CC(=O)OC(C)(C)C)c1nnc(C)n1-2` (stereo not drawn) showed a Proliferation (Concentration range 1nM-1uM) of 0.001662.

For `COc1ccccc1S(=O)(=O)Nc1ccc2c(c1)CN(C)C(=O)N2`, under “Concentration range 10nM-10uM”, the Proliferation is reported as 0.003099.

For `CCCc1cc(C)[nH]c(=O)c1CNC(=O)c1cc(-c2ccnc(N3CCN(C)CC3)c2)cc2c1cnn2C(C)C`, the Proliferation (Concentration range 5nM-5uM) amounted to 0.009822.

Molecule `COc1cc2c(NC3CCN(C(C)C)CC3)nc(N3CCC(F)(F)CC3)nc2cc1OCCCN1CCCC1` displayed a Proliferation (Concentration range 5nM-5uM) of 0.008491.

Regarding `CC(C)N(CCCNC(=O)Nc1ccc(C(C)(C)C)cc1)C[C@H]1O[C@@H](n2cc(Br)c3c(N)ncnc32)[C@H](O)[C@@H]1O`, the Proliferation (Concentration range 10nM-10uM) was found to be 0.01234.

On to `Cc1cn(CCN2CCN(c3ccccc3-c3cc(C#N)cc(C(=O)NCCCN4CCCC4)c3)CC2)c2ccccc12`, for which the Proliferation (Concentration range 10nM-10uM) is given as 0.05285.

Molecule `O=C(Nc1ccc2[nH]nc(-c3ccncc3)c2c1)[C@@H]1CCN(CC(=O)N2CCN(c3ccc(-c4ncccn4)cc3)CC2)C1` displayed a Proliferation of 0.03313.

On to `COc1ccc(CCc2nc3cc(-c4c(C)noc4C)ccc3n2C[C@H](C)N2CCOCC2)cc1Cl`, for which the Proliferation (Concentration range 3nM-3uM) was 0.2022.

Molecule `CCCOc1ccn2c(C(C)=O)cc(-c3ccccc3S(C)(=O)=O)c2c1` came in with a Proliferation (Concentration range 10nM-10uM) of 0.6349.

Molecule `COc1cc(C#N)ccc1S(=O)(=O)Nc1ccc2c(c1)cc(C)c(=O)n2C` showed a Proliferation (Concentration range 10nM-10uM) of 0.0004.

As to `O=C(/C=C/N1C[C@H]2C[C@@H]1CN2c1ccccn1)c1ccccc1O`, the Proliferation (Concentration range 10nM-10uM) worked out at 0.02966.

On to `Cc1cc(=O)n(C)c2cc(N3C(=O)CC[C@H](NS(=O)(=O)CC(C)C)[C@H]3c3ccc(Cl)cc3)ccc12`, for which the Proliferation (Concentration range 10nM-10uM) is 0.2341.

`CCn1cc(-c2cccc(C(F)(F)F)c2)c2sc(C(=N)NC3CCS(=O)(=O)CC3)cc2c1=O`: the Proliferation (Concentration range 10nM-10uM) stood at 0.05754.

The molecule `COc1cc2c(cc1NS(=O)(=O)c1ccc(Br)cc1C)n(C)c(=O)n2C` displayed a Proliferation (Concentration range 5nM-5uM) of 0.003884.

Turning to `Cc1cc2nc(N3CCC(C(=O)NC4CCCC4)CC3)n(C(C)C)c2cc1C`, the Proliferation (Concentration range 10nM-10uM) stood at 0.1009.

The molecule `CN1CCN(c2ccc(-c3cccc(CN4CCOCC4)c3)cc2NC(=O)c2c[nH]c(=O)cc2C(F)(F)F)CC1` yielded a Proliferation (Concentration range 10nM-10uM) of 0.001358.

Where the note is “Concentration range 10nM-10uM”, `CCN(C(=O)CO)[C@H]1CN(/C(=N\C#N)Nc2cccc(OC(F)F)c2)N=C1c1ccc(Cl)c(Cl)c1` registered a Proliferation of 0.05466.

Molecule `CC(C)Oc1ccc(-c2c[nH]cc2CN(C)CCN)cc1` returned a Proliferation (Concentration range 10nM-10uM) of 0.2793.

For `CCC(=O)N1CCOc2c(cc(-c3ccc(OC)c(OC)c3)cc2OCC2CCCN(C)C2)C1` (stereo not drawn), where the note is “Concentration range 5nM-5uM”, the Proliferation is recorded as 0.8195.

Regarding `CNCCN1CCC(OCc2ccccc2)CC1`, under “Concentration range 10nM-10uM”, the Proliferation came to 0.406.

With `O=C(N[C@@H]1CCOC1)C1CCN(c2nc3cc(Cl)c(Cl)cc3n2-c2ccc3ccccc3n2)CC1`, the Proliferation stood at 0.003884.

Molecule `O=C(NCC(=O)N1CCCC1)Nc1ccc2cnccc2c1` displayed a Proliferation (Concentration range 10nM-10uM) of 0.06734.

Consider `Cl.Cl.c1ccc([C@@H]2C[C@H]2NC2CCNCC2)cc1`, for which the Proliferation (Concentration range 1nM-1uM) amounted to 0.6494.

Take `Cn1cc(CCn2cnc(-c3cnn(C)c3)c2-c2ccc(C#N)cc2)cn1`: where the note is “Concentration range 5nM-5uM”, the Proliferation is listed as 0.05329.

`CC(C)(C)S(=O)(=O)c1cc2c(Nc3ccc4scnc4c3)ncnc2cc1OCCO` had a Proliferation of 0.5541.

As for `Clc1cc2c(NC3CCCC3)nnc(-c3ccncc3)c2cc1Cl`, the Proliferation (Concentration range 10nM-10uM) worked out at 0.02485.

Regarding `O=C(NC[C@H](O)CN1CCc2ccccc2C1)c1ccnc(NC2CCC2)c1`, the Proliferation (Concentration range 10nM-10uM) is on record as 0.0004.

`Cl.O=C([C@@H](Cc1cccc(C(F)(F)F)c1)NS(=O)(=O)c1cc(F)c2c(c1)CCNC2)N1CCCC1` came in with a Proliferation (Concentration range 10nM-10uM) of 0.01564.

Turning to `COc1cc(C(=O)N2CC[C@@H](O)[C@@H](N)C2)cc2nc(-c3cc4ccccc4n3CC3CC3)n(C)c12.Cl`, for the setting “Concentration range 10nM-10uM”, the Proliferation is on record as 0.09717.

Molecule `O=C(c1ccc2[nH]ccc2c1)N1CCN(S(=O)(=O)c2ccc3[nH]c(=O)oc3c2)CC1` came in with a Proliferation of 0.6071.

Turning to `O=C(Nc1ccc(I)cc1)N1CCC(n2c(=O)[nH]c3c(Br)cccc32)CC1`, the Proliferation is on record as 0.001093.

With `Nc1cc(N)c(NC(=O)Nc2ccc(C(=O)N[C@@H](CCC(=O)O)C(=O)O)cc2)c(=O)[nH]1`, the Proliferation was 0.01013.

Turning to `CS(=O)(=O)Nc1cc([N+](=O)[O-])ccc1OC1CCCCC1`, the Proliferation was 0.6769.

`CNC(=O)Nc1ccc2c(c1)CC[C@@]21OC(=O)N(CC(=O)N(Cc2ccc(F)cc2)[C@@H](C)C(F)(F)F)C1=O` [A-485]: the Proliferation came out at 0.02668.

In turn, `CN(C)C/C=C/C(=O)Nc1cc2c(Nc3ccc(F)c(Cl)c3)ncnc2cc1O[C@H]1CCOC1.O=C(O)/C=C\C(=O)O.O=C(O)/C=C\C(=O)O` [AFATINIB DIMALEATE] came in with a Proliferation of 0.1122.

`O=C(N1CCS(=O)(=O)CC1)N1C[C@H](c2ccc(OC(F)(F)F)cc2)C[C@H](c2nc(C3CC3)no2)C1` [BAY-386] displayed a Proliferation of 0.02871.

For the molecule `CC(=O)C1=C(C)N(c2cccc(C(F)(F)F)c2)C(=O)N[C@@H]1c1ccc(C#N)nc1` [BAY-678], the Proliferation was 0.03291.

As for `Cc1c(NC(=O)c2cc(C(N)=O)nc3cc(F)ccc23)c(C(F)(F)F)nn1Cc1ccc(C#N)cc1` [BAY-876], the Proliferation is given as 0.01262.

For the molecule `O=C(O)[C@H]1[C@H](Cn2nnc3ccccc3c2=O)CC[C@@H]1C(=O)c1ccc(OCCC2CCOCC2)cc1` [BAY-7598], the Proliferation worked out at 0.03535.

In turn, `CCOCCn1cc(C(=O)Nc2ccc(-n3nc(-c4cccnc4)cc3C(F)(F)F)cn2)ccc1=O` [BI 1935] had a Proliferation of 0.3766.

`CC(=O)N1CCC(c2ccc(C(=O)NC(=N)N)cc2C(F)(F)F)CC1` [BI 9627]: the Proliferation is listed as 0.09817.

Take `CCC(=O)N[C@H]1CC[C@@H](C(=O)N(C)c2ccc(-c3nc4ccccc4o3)cc2)C1` [BI 99179]: the Proliferation is recorded as 0.7724.

Molecule `CN(C)C(=O)Cn1cc(-c2nc([C@@](C)(c3ccc(-c4cnc(N)nc4)cc3)C3CC3)no2)cn1` [BI 665915] showed a Proliferation of 0.119.

`Cn1cnc2c1c(=O)n(CCCn1c(=O)c3c(ncn3C)n(C)c1=O)c(=O)n2C` [BISDIONIN C] returned a Proliferation of 0.03665.

The molecule `O=c1nc(-c2ccccn2)sc2ccccc12` [BTZO-1] yielded a Proliferation of 0.08275.

In the case of `CNC(=O)c1ccc(Nc2ncc(C(F)(F)F)c(NCc3nccnc3N(C)S(C)(=O)=O)n2)cc1` [DEFACTINIB], the Proliferation was found to be 0.1091.

In turn, `O=C(O)Cc1ccccc1Nc1c(Cl)cccc1Cl` [DICLOFENAC] returned a Proliferation of 0.2575.

Consider `C[C@@H](NC(=O)Nc1cc2[nH]ncc2c(CO)n1)c1ccccc1` [ERKi], for which the Proliferation was 0.06922.

As to `CC(C)c1ccc(Nc2nccc(-c3cnn4ncccc34)n2)cc1` [GW805758X], the Proliferation was found to be 0.2702.

On to `CN(Cc1cnc2nc(N)nc(N)c2n1)c1ccc(C(=O)N[C@@H](CCC(=O)O)C(=O)O)cc1` [METHOTREXATE], for which the Proliferation is reported as 0.002627.

`O=C(NOC[C@H](O)CO)c1ccc(F)c(F)c1Nc1ccc(I)cc1F` [MIRDAMETINIB] came in with a Proliferation of 0.
